In series [1] the test system is anesthetized wild type and NOS3−/− mice. Kind of series: Invasive hemodynamic measurements in anesthetized mice. The series is classed as in vivo, mouse. Particulars: for CO (cardiac output) / CVP (central venous pressure) / Ea (arterial elastance) / HR (heart rate) / LVEDP (left ventricular end-diastolic pressure) / LVESP (left ventricular end-systolic pressure) / SVR (systemic vascular resistance) / Tau (time constant of isovolumic relaxation) / dP/dtmax (maximum rate of developed left ventricular pressure) / dP/dtmin (minimum rate of developed left ventricular pressure): mean ± SEM. The procedure:
To explore the mechanisms by which infusion of tetrameric hemoglobin causes systemic hypertension in awake wild type mice, invasive hemodynamic measurements were performed in anesthetized wild type and NOS3^−/− mice before and three minutes after infusion of murine tetrameric hemoglobin or whole murine blood as a control. Mice were anesthetized with an intraperitoneal injection of ketamine (100 mg/kg) and xylazine (5 mg/kg). Muscle relaxation was obtained by adding pancuronium (5 μg/g) after tracheal intubation. […] Two saline-filled PE-10 catheters were inserted separately via the jugular veins; one for monitoring central venous pressure (CVP) and the other for infusion of whole blood or tetrameric hemoglobin solution. A Millar pressure-volume catheter was inserted retrograde via the right carotid artery into the left ventricle (1.4F, model SPR839, Millar Instruments Inc., Houston, Tex.). After obtaining stable hemodynamic measurements, whole blood (1.44 g Hb/kg) or murine tetrameric Hb solution (0.48 g/kg) was infused through the jugular vein, at a rate of 100 μl/min for 3 min. PVAN software was used to analyze left ventricular pressure-volume loop data (Conductance Technologies Inc., San Antonio, Tex.).

For series [2], the target named is T1, plasma hemoglobin (Mus musculus, UniProt P01942+P02088).
T1 construct: The blood was frozen and thawed three times and then centrifuged; from tissue; host or cells: whole blood of wild type C57BL/6 mice (hemolysate, filtered, dialysed, concentrated)
It counts as in vivo. As to the method:
Hemoglobin and methemoglobin concentration in whole blood and plasma were determined by the cyanomethemoglobin method measuring OD at 540 nm and 630 nm with a Spectrophotometer-Biomate 3 (Thermoelectron Corporation, Waltham, Mass.).
(§1) The effects of breathing nitric oxide on systolic tail blood pressure after the infusion of murine tetrameric hemoglobin solution were monitored every 10 minutes for the 1st hour and every 20 minutes for the rest of the experiments. Blood hemoglobin and methemoglobin levels were measured every 15 minutes in the nitric oxide pretreatment group, wherein all mice breathed nitric oxide at 80 ppm for 1 hour before infusion. Hemoglobin and methemoglobin levels in whole blood and plasma were measured in additional mice after the intravenous infusion of tetrameric hemoglobin solution at 10 minutes and 60 minutes while breathing nitric oxide at 8 ppm or 80 ppm throughout the experiment.

Another series concerns awake lambs. The series is classed as in vivo, lamb. From the text: Lambs were briefly anesthetized, given a tracheostomy, the internal jugular vein was percutaneously catheterized and a flow directed Swan Ganz catheter passed into the pulmonary artery to permit measurements of central hemodynamics and cardiac output by thermaldilution. An arterial line was placed in the carotid artery. Animals were allowed several hours to awaken from anesthesia and were studied awake and restrained in a harness. Three groups of lambs were studied: (1) “autologous whole blood” animals donated autologous blood, which was stored with heparin anti-coagulation at 4° C.—two days later they received an infusion of their 37° C. autologous whole blood (12 ml/kg over 20 minutes) while breathing at FiO2=0.3 (n=3); (2) “HBOC-201” animals received an infusion of HBOC-201 (12 ml/kg over 20 minutes) while breathing at FiO2=0.3 (n=3); and (3) “HBOC-201 after iNO” animals inhaled 80 ppm nitric oxide at FiO2=0.3 for one hour before receiving an infusion of HBOC-201 (12 ml/kg over 20 minutes) (n=5). Systemic vascular resistance (SVR) and pulmonary vascular resistance (PVR) were calculated using standard formulae as follows: [SVR ([…])=(MAP−CVP)/CO*79.96]; and [PVR ([…])=(PAP−PCWP)/CI*79.96].
(1) “Autologous whole blood” animals received an infusion of 37° C. autologous whole blood (12 ml/kg over 20 minutes) while breathing at FiO2=0.3 (n=3); (2) “HBOC-201” animals received an infusion of 37° C. HBOC-201 (12 ml/kg over 20 minutes) while breathing at FiO2=0.3 (n=3); and (3) “HBOC-201 after high and low dose iNO” animals inhaled 80 ppm nitric oxide at FiO2=0.3 for one hour before receiving an infusion of HBOC-201 (12 ml/kg over 20 minutes), which was followed by breathing 5 ppm nitric oxide at FiO2=0.3 for two hours, which was followed by breathing at FiO2=0.3 (and discontinued inhalation of nitric oxide gas) for another one hour (n=4).

Series [3] has as its target plasma hemoglobin (Bos taurus, UniProt P01966+P02070). The series is described as follows: Plasma methemoglobin concentration in awake lambs. The series is classed as in vivo, lamb. From the text:
Lambs were briefly anesthetized, given a tracheostomy, the internal jugular vein was percutaneously catheterized and a flow directed Swan Ganz catheter passed into the pulmonary artery to permit measurements of central hemodynamics and cardiac output by thermaldilution. An arterial line was placed in the carotid artery. Animals were allowed several hours to awaken from anesthesia and were studied awake and restrained in a harness. […] Systemic vascular resistance (SVR) and pulmonary vascular resistance (PVR) were calculated using standard formulae as follows: [SVR ([…])=(MAP−CVP)/CO*79.96]; and [PVR ([…])=(PAP−PCWP)/CI*79.96].
Methemoglobin concentration in plasma was measured before and after breathing 80 ppm nitric oxide for one hour (and before and after infusion of autologous whole blood or HBOC-201). […]
Plasma methemoglobin concentration was measured before and after breathing nitric oxide at various concentrations (and before and after infusion of autologous whole blood or HBOC-201).

For another series, the system named is awake mice. Kind of series: Tail-cuff systolic blood pressure in awake mice. Particulars: for tail systolic blood pressure after intravenous injection: awake wild type mice, 0.012 ml/g body weight i.v. The series is classed as in vivo, mouse. As to the method: The mouse was placed in a restrainer for this procedure. All mice were handled briefly and gently to inject a tetrameric hemoglobin solution into a lateral tail vein. Before injection, the tail was warmed under an infra-red heat lamp for 5 minutes to enable access to the vein. The injection volume was 0.012 ml/g body weight for each mouse. Infusion was done during the course of one minute.
With the use of volumetrically calibrated flowmeters (Cole-Parmer, Vernon Hills, Ill.), nitric oxide gas (800 ppm in nitrogen; INO Therapeutics, Clinton, […], Clinton, N.J.). The nitric oxide, nitrogen dioxide and oxygen (21%) levels were continuously monitored (INOvent delivery system, Datex-Ohmeda, Madison, Wis.).
as §1
Systolic blood pressure was measured with a non-invasive tail-cuff machine (XBP 1000, Kent Scientific, Torrington, Conn.) in wild type mice and NOS3^−/− mice. Mice were first subjected to one or two practice sessions to acclimate them to the device. The mouse was placed in a restrainer for a short period of time (<1 minute to start), then kept in the restrainer for longer times to acclimate to the device. The degree of acclimatization was judged by the absence of agitation in the device. After a few days of practice sessions, mice were restrained in a commercial mouse restraint device (Kent Scientific, Torrington, Conn.). […]
All values are expressed as mean±SEM. Data were analyzed using ANOVA. The difference in hemodynamic parameters before and after infusion of murine tetrameric hemoglobin or nitric oxide inhalation was examined by a paired t-test for repeated measurements. P values less than 0.05 were considered significant (as indicated by a * in the figures).

The mark [4] stands for this setting: lambs breathing 80 ppm nitric oxide for one hour before HBOC-201, terminated immediately before infusion.
[5] abbreviates: lambs: 80 ppm nitric oxide one hour before HBOC-201, then 5 ppm after the infusion.
The mark [6] stands for this setting: NOS3−/− mice breathing air, three minutes after infusion.
[7] abbreviates: WT mice breathing air, three minutes after infusion.
Setting [8] is: WT ± iNO: WT mice breathing 80 ppm NO in air for 15 min, NO discontinued, then infusion.

Results on 4 molecules are retold here after US8887721B2, “Attenuation of vasoactive oxygen carrier-induced vasoconstriction” (The General Hospital Corporation, priority 2006, dated 2014).

Where two headings read alike, the source gives them in different places. Some results are limits rather than exact numbers.

T1 sequence (P01942 2-142 limits assumed): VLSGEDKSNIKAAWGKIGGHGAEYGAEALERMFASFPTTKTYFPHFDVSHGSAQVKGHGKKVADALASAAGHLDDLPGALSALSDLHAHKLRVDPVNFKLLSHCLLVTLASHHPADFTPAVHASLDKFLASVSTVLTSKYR
T1 sequence (P02088 2-147 limits assumed): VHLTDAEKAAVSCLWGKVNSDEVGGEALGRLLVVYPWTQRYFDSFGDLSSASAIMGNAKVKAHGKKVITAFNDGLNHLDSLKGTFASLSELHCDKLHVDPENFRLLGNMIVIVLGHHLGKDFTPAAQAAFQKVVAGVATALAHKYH
Sequence of plasma hemoglobin (Bos taurus, UniProt P01966+P02070) (P01966 2-142 limits assumed): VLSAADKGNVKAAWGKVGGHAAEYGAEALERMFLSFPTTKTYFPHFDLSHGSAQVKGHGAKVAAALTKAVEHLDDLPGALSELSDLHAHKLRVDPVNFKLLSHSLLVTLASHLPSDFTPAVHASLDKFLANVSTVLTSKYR
Sequence of plasma hemoglobin (Bos taurus, UniProt P01966+P02070) (P02070 whole entry): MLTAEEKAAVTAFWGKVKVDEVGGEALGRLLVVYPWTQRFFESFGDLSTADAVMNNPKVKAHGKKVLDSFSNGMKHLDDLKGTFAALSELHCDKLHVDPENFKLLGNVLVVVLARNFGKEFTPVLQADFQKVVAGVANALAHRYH

Consider `[N]=O` [nitric oxide], for which the “increase of LVESP, LVEDP, SVR, Ea and τ induced by murine tetrameric hemoglobin infusion” value in series [1] (wild type mice pretreated with inhaled nitric oxide at 80 ppm for 15 minutes) was “abolished the increase of LVESP, LVEDP, SVR, Ea, and τ”. For the same molecule, the “conversion of plasma hemoglobin to methemoglobin” value on plasma hemoglobin [2] (wild type mice breathing 80 ppm nitric oxide for one hour before infusion of murine tetrameric hemoglobin solution, terminated at infusion) was less than 5%; at plasma hemoglobin [2] (wild type mice breathing 80 ppm nitric oxide while given murine tetrameric hemoglobin solution, 10 and 60 minutes after injection) it was “conversion of a significant proportion of plasma hemoglobin to inactive methemoglobin”. In the series with awake lambs (lambs administered HBOC-201), the “pulmonary hypertension after inhalation of 5 ppm nitric oxide was abruptly discontinued” value is reported as “rebounded”. Also, the “increase in mean arterial pressure after HBOC-201 infusion” value in the series with awake lambs (setting [4]) and in the series on awake lambs (setting [5]) was “blocked the increase” in each case. The results for the “increase in pulmonary arterial pressure after HBOC-201 infusion” value in the series on awake lambs (setting [4]) and in the series on awake lambs (setting [5]) were “did not block the increase” and “blocked the increase”, respectively. Moreover, the “increase in pulmonary vascular resistance after HBOC-201 infusion” value with awake lambs (setting [4]) was “did not block the increase”; in the series with awake lambs (setting [5]) it was “blocked the increase”. Further, the “increase in systemic vascular resistance after HBOC-201 infusion” value in the series with awake lambs (setting [4]) and in the series on awake lambs (setting [5]) was “blocked the increase” each time. Also, the “plasma methemoglobin compared to lambs that received HBOC-201 without nitric oxide” value on plasma hemoglobin [3] (80 ppm nitric oxide for one hour before HBOC-201, terminated at infusion) is “did not result in an increase in plasma methemoglobin”. The “plasma methemoglobin compared to animals that received HBOC-201 without nitric oxide” value on plasma hemoglobin [3] (80 ppm nitric oxide one hour before HBOC-201, then 5 ppm after the infusion) is reported as “did not result in an increase in plasma methemoglobin”. The “hemoglobin-induced elevation in systolic blood pressure” value in the series with awake mice (wild type mice breathing 80 ppm nitric oxide continuously before and subsequent to infusion of murine tetrameric hemoglobin solution) was “prevented a hemoglobin-induced elevation in systolic blood pressure”; with awake mice (wild type mice breathing 80 ppm nitric oxide for 15 minutes before infusion, terminated at infusion) it was “prevented a hemoglobin-induced elevation in systolic blood pressure”; in the series with awake mice (wild type mice breathing 80 ppm nitric oxide for one hour before infusion, terminated at infusion) it was “prevented a hemoglobin-induced elevation in systolic blood pressure”; in the series on awake mice (wild type mice breathing 200 ppm nitric oxide for 7 minutes before infusion, terminated at infusion) it was “prevented a hemoglobin-induced elevation in systolic blood pressure”.

On plasma hemoglobin [2] (mouse, in vivo), `O=NO` [sodium nitrite, Sodium nitrite] had a plasma methemoglobin level of 10±2%. In addition, the “systemic hypertension caused by subsequent infusion of murine tetrameric hemoglobin” value with awake mice (awake mice, 48 nmol sodium nitrite i.v. five minutes before hemoglobin (0.48 g/kg)) is reported as “blocked the systemic hypertension”. Further, the “blood pressure before murine tetrameric hemoglobin was infused” value in the series on awake mice (awake mice, 48 nmol sodium nitrite via tail vein) is on record as “did not alter blood pressure”.

As to “Tetrameric Hb: tetrameric hemoglobin solution (4 g/dl) prepared from lysed whole blood of wild type C57BL/6 mice”, in series [1] (setting [6]), the “CO (cardiac output)” value turned out to be 9 ± 1 mL/min, the “CVP (central venous pressure)” value amounted to 4 ± 0 mmHg, the “Ea (arterial elastance)” value worked out at 8 ± 1 mmHg/μl and the “HR (heart rate)” value came out at 553 ± 18 bpm. Also, in series [1] (setting [6]), the “LVEDP (left ventricular end-diastolic pressure)” value is 8 ± 2 mmHg, the “LVESP (left ventricular end-systolic pressure)” value is recorded as 117 ± 5 mmHg, the “SVR (systemic vascular resistance)” value was 15 ± 2 dynes*sec/cm^2 and the “Tau (time constant of isovolumic relaxation)” value (from here on “Tau”) turned out to be 6 ± 1 ms. Besides, in series [1] (setting [6]), the “dP/dtmax (maximum rate of developed left ventricular pressure)” value (from here on “dP/dtmax”) is listed as 13736 ± 606 mmHg/s and the “dP/dtmin (minimum rate of developed left ventricular pressure)” value (“dP/dtmin” for short) is on record as −12290 ± 620 mmHg/s. Further, in series [1] (setting [7]), the “CO (cardiac output)” value came out at 10 ± 1 mL/min, the “CVP (central venous pressure)” value is recorded as 3 ± 0 mmHg, the “Ea (arterial elastance)” value amounted to 9 ± 1 mmHg/μl and the “HR (heart rate)” value turned out to be 602 ± 12 bpm. In series [1] (setting [7]), the “LVEDP (left ventricular end-diastolic pressure)” value was 12 ± 1 mmHg, the “LVESP (left ventricular end-systolic pressure)” value worked out at 158 ± 5 mmHg, the “SVR (systemic vascular resistance)” value was 16 ± 1 dynes*sec/cm^2 and the “Tau” value turned out to be 8 ± 1 ms. In series [1] (setting [7]), the “dP/dtmax” value turned out to be 12260 ± 750 mmHg/s and the “dP/dtmin” value is listed as −10110 ± 640 mmHg/s. In series [1] (setting [8]), the “CO (cardiac output)” value was 12 ± 1 mL/min, the “CVP (central venous pressure)” value came out at 4 ± 0 mmHg, the “Ea (arterial elastance)” value is given as 5 ± 0 mmHg/μl and the “HR (heart rate)” value was 603 ± 20 bpm. Besides, in series [1] (setting [8]), the “LVEDP (left ventricular end-diastolic pressure)” value is 6 ± 1 mmHg, the “LVESP (left ventricular end-systolic pressure)” value turned out to be 101 ± 4 mmHg, the “SVR (systemic vascular resistance)” value came out at 8 ± 1 dynes*sec/cm^2 and the “Tau” value is 5 ± 0 ms. For the same molecule, in series [1] (setting [8]), the “dP/dtmax” value was determined as 11230 ± 750 mmHg/s and the “dP/dtmin” value was −10650 ± 430 mmHg/s. In addition, in series [1] (anesthetized NOS3−/− mice), the “effect of infusion on invasive hemodynamic parameters” value is “did not alter HR, LVESP, LVEDP, CO, dP/dtmax, dP/dtmin, SVR, Ea, τ, or CVP”. For the same molecule, in series [1] (anesthetized wild type mice), the “effect of infusion on invasive hemodynamic parameters” value is “increased LVESP, LVEDP, SVR, Ea, and τ and decreased CO without affecting dP/dtmax, dP/dtmin, or CVP”. Also, the “tail systolic blood pressure after intravenous injection” value with awake mice is listed as “significant increase in systolic blood pressure”. The “tail systolic blood pressure after intravenous injection” value with awake mice (listed as murine tetrameric hemoglobin solution) is recorded as “significant elevation in blood pressure”. The “systemic blood pressure after infusion” value with awake mice (solution containing 14.5% methemoglobin) is “caused systemic hypertension”.

For the molecule “HBOC-201: a chemically cross-linked bovine hemoglobin formulated in a salt solution; Biopure”, in the series on awake lambs (in vivo), the “mean arterial pressure after infusion” value is on record as “increase”, the “pulmonary arterial pressure after infusion” value is on record as “increase”, the “pulmonary vascular resistance after infusion” value is listed as “increase” and the “systemic vascular resistance after infusion” value is “increase”.
